Experimental data as given in US20070072897A1, “Phenylaminopropanol derivatives and methods of their use” (Wyeth, priority 2005, published 2007).
Counter-ions that a name gives are not always drawn.

The molecules below were run against T1, human hNET (Homo sapiens, UniProt P23975) (assay: Norepinephrine (NE) uptake assay in MDCK-Net6 cells). Conditions: [3H]NE uptake, MDCK-Net6 cells stably transfected with hNET.
T1 construct: expressed in transfected cells; host or cells: MDCK (MDCK-Net6)
Format: cell-based
Experimental: Cells were plated at 300,000/T75 flask and cells were split twice weekly. […] Cells were plated at 250,000 cells/T75 flask and split twice weekly.
Norepinephrine (NE) Uptake Assay
On day 1, cells were plated at 3,000 cells/well in growth medium and maintained in a cell incubator (37° C., 5% CO2). On day 2, growth medium was replaced with 200 μl of assay buffer (25 mM HEPES; 120 mM NaCl; 5 mM KCl; 2.5 mM CaCl2; 1.2 mM MgSO4; 2 mg/ml glucose (pH 7.4, 37° C.)) containing 0.2 mg/ml ascorbic acid and 10 μM pargyline. Plates containing cells with 200 μl of assay buffer were equilibrated for 10 minutes at 37° C. prior to addition of compounds. A stock solution of desipramine was prepared in DMSO (10 mM) and delivered to triplicate wells containing cells for a final test concentration of 1 μM. Data from these wells were used to define non-specific NE uptake (minimum NE uptake). Test compounds were prepared in DMSO (10 mM) and diluted in assay buffer according to test range (1 to 10,000 nM). Twenty-five microliters of assay buffer (maximum NE uptake) or test compound were added directly to triplicate wells containing cells in 200 μl of assay buffer. The cells in assay buffer with test compounds were incubated for 20 minutes at 37° C. […] The reaction was terminated by decanting the supernatant from the plate. The plates containing cells were washed twice with 200 μl assay buffer (37° C.) to remove free radioligand. The plates were then inverted, left to dry for 2 minutes, then reinverted and air-dried for an additional 10 minutes. […] After cell lysis, 75 μl of scintillation cocktail was added to each well and the plates were sealed with film tape. The plates were returned to the shake table and vigorously shaken for a minimum of 10 minutes to ensure adequate partitioning of organic and aqueous solutions. The plates were counted in a Wallac Microbeta counter (PerkinElmer) to collect the raw cpm data.
For each experiment, a data stream of cpm values collected from the Wallac Microbeta counter was downloaded to a Microsoft Excel statistical application program. Calculations of EC50 values were made using the transformed-both-sides logistic dose response program written by Wyeth Biometrics Department.

T1 sequence (P23975 whole entry): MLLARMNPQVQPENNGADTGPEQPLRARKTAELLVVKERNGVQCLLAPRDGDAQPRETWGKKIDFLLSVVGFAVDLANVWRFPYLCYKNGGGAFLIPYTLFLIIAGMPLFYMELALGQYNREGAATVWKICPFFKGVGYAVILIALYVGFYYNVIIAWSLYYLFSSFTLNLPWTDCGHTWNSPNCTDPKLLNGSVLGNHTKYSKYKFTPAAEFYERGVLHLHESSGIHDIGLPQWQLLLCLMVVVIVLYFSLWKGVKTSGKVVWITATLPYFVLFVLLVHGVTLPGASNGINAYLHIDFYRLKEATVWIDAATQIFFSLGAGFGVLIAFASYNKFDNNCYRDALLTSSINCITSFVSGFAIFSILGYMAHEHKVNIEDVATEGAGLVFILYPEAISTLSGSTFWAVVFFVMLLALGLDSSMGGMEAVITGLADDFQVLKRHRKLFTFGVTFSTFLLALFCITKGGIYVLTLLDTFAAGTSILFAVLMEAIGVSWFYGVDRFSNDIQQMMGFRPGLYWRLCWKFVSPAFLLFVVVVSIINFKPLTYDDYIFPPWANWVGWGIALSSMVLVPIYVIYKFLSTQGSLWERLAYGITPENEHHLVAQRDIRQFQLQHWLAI

Going from CNC[C@@H](O)[C@H](c1ccccc1)N1C(=O)C2(CCCCC2)c2cc(OCc3ccccc3)ccc21 [Example 67, 5′-(benzyloxy)-1′-[(1S,2R)-2-hydroxy-3-(methylamino)-1-phenylpropyl]spiro[cyclohexane-1,3′-indol]-2′(1′H)-one hydrochloride] to CNC[C@@H](O)[C@H](c1cccc(F)c1)N1C(=O)C2(CCCC2)c2cccc(F)c21 [Example 117, 7′-fluoro-1′-[(1S,2R)-1-(3-fluorophenyl)-2-hydroxy-3-(methylamino)propyl]spiro[cyclopentane-1,3′-indol]-2′(1′H)-one hydrochloride], the EC50 falls from 839 nM to 2 nM (420-fold). The second is the more potent here.

Compared with CNC[C@@H](O)[C@H](c1cccc(F)c1)N1C(=O)C2(CCC2)c2cccc(F)c21 [Example 116, 7′-fluoro-1′-[(1S,2R)-1-(3-fluorophenyl)-2-hydroxy-3-(methylamino)propyl]spiro[cyclobutane-1,3′-indol]-2′(1′H)-one hydrochloride], CNC[C@@H](O)[C@H](c1cc(F)cc(Cl)c1)N1C(=O)C(C)(C)c2cccc(F)c21 [Example 112, 1-[(1S,2R)-1-(3-chloro-5-fluorophenyl)-2-hydroxy-3-(methylamino)propyl]-7-fluoro-3,3-dimethyl-1,3-dihydro-2H-indol-2-one hydrochloride] is 5-fold lower in EC50: 10 nM for the first, 2 nM for the second.

Going from CNC[C@@H](O)[C@H](c1cccc(F)c1)n1cc(-c2cccc(OC)c2OC)c2ccccc21 [Example 40, (1S,2R)-1-[3-(2,3-dimethoxyphenyl)-1H-indol-1-yl]-1-(3-fluorophenyl)-3-(methylamino)propan-2-ol hydrochloride] to CNC[C@@H](O)[C@H](c1cccc(F)c1)n1cc(-c2ccc(Cl)cc2Cl)c2ccccc21 [Example 41, (1S,2R)-1-[3-(2,4-dichlorophenyl)-1H-indol-1-yl]-1-(3-fluorophenyl)-3-(methylamino)propan-2-ol hydrochloride], the EC50 rises from 41 nM to 193 nM (4.7-fold). The first is the more potent here.

First: CNC[C@@H](O)[C@H](c1cc(F)cc(Cl)c1)N1CCc2ccccc21 [Example 113, (1S,2R)-1-(3-chloro-5-fluorophenyl)-1-(2,3-dihydro-1H-indol-1-yl)-3-(methylamino)propan-2-ol hydrochloride]
Second: CNC[C@@H](O)[C@H](c1cc(F)cc(F)c1)N1C(=O)C(C)(C)c2ccccc21 [Example 64, 1-[(1S,2R)-1-(3,5-difluorophenyl)-2-hydroxy-3-(methylamino)propyl]-3,3-dimethyl-1,3-dihydro-2H-indol-2-one hydrochloride]
The EC50 of the first is 1.6-fold higher: 33 nM for the first, 20 nM for the second.

First: CNC[C@@H](O)[C@H](c1ccccc1)N1CC(C(C)C)c2ccccc21 (stereo partly drawn) [Example 60, (1S,2R)-1-(3-isopropyl-2,3-dihydro-1H-indol-1-yl)-3-(methylamino)-1-phenylpropan-2-ol hydrochloride]
Second: CNC[C@@H](O)[C@H](c1cccc(F)c1)n1cc(-c2ccccc2OC(F)(F)F)c2ccccc21 [Example 34, (1S,2R)-1-(3-fluorophenyl)-3-(methylamino)-1-{3-[2-(trifluoromethoxy)phenyl]-1H-indol-1-yl}propan-2-ol hydrochloride]
The EC50 of the first is 4.9-fold lower: 67 nM for the first, 327 nM for the second. The first is the more potent here.

Same assay, conditions: at 1 μM; [3H]NE uptake, MDCK-Net6 cells; read-out: hNET Percentage inhibition at 1 μM

Compared with CNC[C@@H](O)[C@H](c1cccc(F)c1)n1cc(-c2ccccc2Oc2ccccc2)c2ccccc21 [Example 37, (1S,2R)-1-(3-fluorophenyl)-3-(methylamino)-1-[3-(2-phenoxyphenyl)-1H-indol-1-yl]propan-2-ol hydrochloride], CNC[C@@H](O)[C@H](c1cccc(F)c1)n1ccc2cc(OC)ncc21 [Example 46, (1S,2R)-1-(3-fluorophenyl)-1-(5-methoxy-1H-pyrrolo[2,3-c]pyridin-1-yl)-3-(methylamino)propan-2-ol hydrochloride] is higher in inhibition at 1 µM: 26% for the first, 46% for the second.

Molecule CNC[C@@H](O)[C@H](c1ccccc1)n1ccc2cc(OC)ncc21 [Example 45, (1S,2R)-1-(5-methoxy-1H-pyrrolo[2,3-c]pyridin-1-yl)-3-(methylamino)-1-phenylpropan-2-ol hydrochloride] has an inhibition at 1 µM of 43%.
